Data on two molecules can be found in PMC11508362, “Discovery of Novel Thiazole-Based SIRT2 Inhibitors as Anticancer Agents: Molecular Modeling, Chemical Synthesis and Biological Assays” (International Journal of Molecular Sciences, 2024).

One data set has as its target T1, SIRT1 (Homo sapiens, UniProt Q96EB6).
T1 sequence (Q96EB6 1-747): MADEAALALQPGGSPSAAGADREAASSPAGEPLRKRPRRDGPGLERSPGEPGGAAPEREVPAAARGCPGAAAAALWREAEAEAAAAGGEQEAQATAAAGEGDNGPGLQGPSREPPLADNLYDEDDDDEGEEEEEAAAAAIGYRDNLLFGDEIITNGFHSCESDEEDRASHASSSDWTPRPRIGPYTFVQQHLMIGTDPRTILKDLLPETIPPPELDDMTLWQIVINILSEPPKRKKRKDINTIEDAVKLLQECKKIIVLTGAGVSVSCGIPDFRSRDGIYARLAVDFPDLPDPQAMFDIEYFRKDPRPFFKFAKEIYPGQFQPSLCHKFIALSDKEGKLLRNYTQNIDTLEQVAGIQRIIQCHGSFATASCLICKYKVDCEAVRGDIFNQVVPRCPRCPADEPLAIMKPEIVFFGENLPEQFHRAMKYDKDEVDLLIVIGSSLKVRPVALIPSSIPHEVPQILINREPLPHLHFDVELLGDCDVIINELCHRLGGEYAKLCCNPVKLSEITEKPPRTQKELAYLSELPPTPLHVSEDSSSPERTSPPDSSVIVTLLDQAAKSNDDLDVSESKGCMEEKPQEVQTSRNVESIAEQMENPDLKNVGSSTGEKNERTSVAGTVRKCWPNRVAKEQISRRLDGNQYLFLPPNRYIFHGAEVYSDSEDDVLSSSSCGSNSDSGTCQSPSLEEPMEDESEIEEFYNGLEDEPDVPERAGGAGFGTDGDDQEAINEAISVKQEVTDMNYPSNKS
The experiment in a line: SIRT1 deacetylation reaction, recombinant protein. Type of data set: biochemical. The following applies: deacetylase activity, SD always ≤10%. As to the method: (§1) Next, the selectivity of the compounds for SIRT2 against other sirtuins was also determined. The compounds were tested at the final concentration of 150 µM in the deacetylation reaction of SIRT1, SIRT3 and SIRT6, with this last one being promoted by the addition of the SIRT6 activator MDL-800 and also in the depalmitoylation reaction of SIRT6.

For the next data set, the target named is T2, SIRT3 (Homo sapiens, UniProt Q9NTG7).
T2 sequence (Q9NTG7 1-399): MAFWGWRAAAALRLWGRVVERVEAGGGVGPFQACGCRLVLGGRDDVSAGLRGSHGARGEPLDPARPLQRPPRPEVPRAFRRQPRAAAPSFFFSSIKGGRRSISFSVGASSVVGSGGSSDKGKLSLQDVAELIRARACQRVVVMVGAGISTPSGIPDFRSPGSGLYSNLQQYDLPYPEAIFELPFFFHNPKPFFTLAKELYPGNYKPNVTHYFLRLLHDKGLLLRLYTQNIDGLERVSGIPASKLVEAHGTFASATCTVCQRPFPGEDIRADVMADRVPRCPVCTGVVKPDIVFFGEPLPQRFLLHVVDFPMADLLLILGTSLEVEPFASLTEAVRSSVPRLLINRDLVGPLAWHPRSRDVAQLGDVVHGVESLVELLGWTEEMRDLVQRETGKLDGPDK
The experiment in a line: SIRT3 deacetylation reaction, recombinant protein. In kind it is biochemical. The following applies: deacetylase activity, SD always ≤10%. As to the method:
as §1

In data set [1] the target is T3, SIRT6 (Homo sapiens, UniProt Q8N6T7). The experiment in a line: SIRT6 deacetylation reaction promoted by the SIRT6 activator MDL-800, recombinant protein. In kind it is biochemical. The following applies: 150 µM, with SIRT6 activator MDL-800, SD always ≤10%. How it is done:
as §1

Data set [2] addresses T3, SIRT6. The experiment in a line: SIRT6 depalmitoylation reaction (H3K9Palm), recombinant protein. Type of data set: biochemical. The conditions noted are these: 150 µM, SD always ≤10%. As to the method: as §1
The subject of the next data set is SCC13 cells. The experiment in a line: Cell viability by sulforhodamine B assay, SCC13. Type of data set: cell-based. The following applies: 48 h, increasing concentrations. As to the method:
(§2) SCC13 and HaCaT cell lines were a kind gift from Prof. Alessio Nencioni (University of Genoa), and cells were maintained in Gibco™ Keratinocyte SFM 1X medium supplied with prequalified human recombinant epidermal growth factor 1–53 (EGF 1–53) and bovine pituitary extract (BPE, CAT# 17005042) (Thermo Fisher Scientific, Milano, Italy), with 50 IU/mL penicillin and 50 μg/mL streptomycin and cultured as in [36]. SCC13 and HaCaT cells were treated for 48 h with the putative SIRT2 inhibitor, and cell viability was analyzed by a sulforhodamine B assay. Briefly, 5000 cells/well were seeded in 96-well plates in triplicate and allowed to adhere overnight. The day after, the medium was replaced with fresh medium containing increasing concentrations of 5a. After 48 h, TCA was added, and samples were processed as previously described.
On the technique in general: Sulforhodamine B stains cellular protein and so reports cell mass.

The subject of the next data set is HaCaT cells. Type of data set: cell-based. As to the method:
as §2

For data set [3], the system named is acetylation of α-tubulin in SCC13 cells. The experiment in a line: Western blot of α-tubulin acetylation (endogenous SIRT2 inhibition) in SCC13 cells. In kind it is cell-based. The conditions noted are these: 5 μM, 48 h, Western blot normalized to total α-tubulin. As to the method: To confirm that the effect of 5a on cell viability was due to its ability to inhibit the endogenous SIRT2, Western blot analyses were performed to quantify the level of acetylation of α-tubulin, a direct substrate of SIRT2 enzymatic activity.
SCC13 cells (3 × 10^5) were seeded in 60 mm Petri dishes and left to adhere overnight. The day after, the medium was replaced with a medium containing 5a at a final concentration of 5 µM or the respective amount of DMSO vehicle. After 48 h, the medium was removed, and cells were washed with PBS and lysed by scraping with 100 µL of lysis buffer (25 mM Tris-HCl, pH 7.8; 2 mM DTT; 2 mM EDTA, 10% glycerol; 1% Triton® X-100). The lysate was clarified by centrifugation, and the protein concentration was measured using the Bradford assay. Twenty µg of proteins were loaded on a 10% polyacrylamide gel and then transferred to a nitrocellulose membrane. The membrane was saturated with 5% skim milk powder solution in TBS-Tween 0.05%. To determine the acetylation of alpha-tubulin, membranes were incubated with an anti-acetyl-alpha-tubulin antibody (#5335, Cell Signaling Technology, Danvers, MA, USA), whose signal was normalized on the total amount of alpha-tubulin (#2125, Cell Signaling Technology).
A general note: A western blot detects proteins with antibodies after separation by electrophoresis.

Data set [4] deals with T4, SIRT2 (Homo sapiens, UniProt Q8IXJ6).
T4 sequence (Q8IXJ6 1-389): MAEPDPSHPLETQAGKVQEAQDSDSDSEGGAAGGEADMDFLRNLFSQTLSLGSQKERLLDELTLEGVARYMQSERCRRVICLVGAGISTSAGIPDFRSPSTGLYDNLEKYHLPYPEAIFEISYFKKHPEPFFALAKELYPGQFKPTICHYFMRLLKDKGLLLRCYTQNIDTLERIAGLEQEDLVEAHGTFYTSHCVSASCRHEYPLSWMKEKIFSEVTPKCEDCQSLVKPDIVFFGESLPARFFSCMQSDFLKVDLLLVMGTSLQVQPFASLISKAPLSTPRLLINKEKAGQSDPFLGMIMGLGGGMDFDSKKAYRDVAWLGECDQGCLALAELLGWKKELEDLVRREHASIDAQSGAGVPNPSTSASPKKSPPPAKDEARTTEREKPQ
The experiment in a line: SIRT2 deacetylase activity, recombinant SIRT2 with acetylated peptide H3K9Ac and NAD+.
Procedure: The effect of urea derivatives on SIRT2 deacetylase activity was evaluated upon incubation of recombinant SIRT2 with an acetylated peptide (H3K9Ac, a peptide acetylated on Lys 9) and the co-substrate NAD^+.

Data set [5] addresses T4, SIRT2. The arrangement: method as in PMID 37765125. The following applies: at 150 μM; cited from earlier work.

Entries after “also recorded” stand apart in the source; their conditions may differ.

T3 sequence (Q8N6T7 whole entry, species assumed): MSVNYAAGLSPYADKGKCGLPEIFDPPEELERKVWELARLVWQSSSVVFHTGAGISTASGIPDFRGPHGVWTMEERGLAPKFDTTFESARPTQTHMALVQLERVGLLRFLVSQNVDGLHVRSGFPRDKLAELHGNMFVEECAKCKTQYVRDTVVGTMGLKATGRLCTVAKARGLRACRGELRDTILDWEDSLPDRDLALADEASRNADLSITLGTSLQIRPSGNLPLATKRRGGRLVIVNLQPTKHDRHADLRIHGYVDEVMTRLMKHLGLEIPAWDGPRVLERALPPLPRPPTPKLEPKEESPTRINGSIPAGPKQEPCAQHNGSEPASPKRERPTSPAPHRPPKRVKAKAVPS

A word on the inhibition: it is the change of the read-out against control, counted positive when it falls. In general, IC50 refers to the concentration needed to halve the response being measured. With `CCOC(=O)c1sc(NC(=O)Nc2cccc(OC)c2)nc1-c1ccc(Br)cc1` [Compound 5a, Ethyl4-(4-bromophenyl)-2-(3-(3-methoxyphenyl)ureido)thiazole-5 carboxylate], the inhibition at 150 µM was found to be 100% on SIRT1, 36% at SIRT3 and 98 ± 5% on SIRT2 [4] (read-out: % Inhibition SIRT2 (at 150 μM)). In addition, the “% Inhibition SIRT6 (Deacetylase)” value at SIRT6 [1] is listed as “ni”. Further, the “% Inhibition SIRT6 (Depalmiotoylase)” value on SIRT6 [2] is listed as “ni”. For the same molecule, the “cell death / toxicity (cell viability, SRB assay)” value in the data set on SCC13 cells was “concentration-dependent toxicity; also recorded: concentration-dependent cell death”. The “toxicity (cell viability, SRB assay)” value with HaCaT cells is reported as “not on the normal keratinocyte cell line HaCaT”. The “level of α-tubulin acetylation vs control cells” value in [3] is reported as “increases α-tubulin acetylation; also recorded: increased levels of alpha-tubulin acetylation”. Further, the IC50 on SIRT2 [4] is 9 ± 2 µM.
Turning to `CCc1ccc(Nc2nc(-c3ccc(Cl)cc3)cs2)cc1SC` [Compound T1], the SIRT2 inhibition percentage on SIRT2 [5] is 100%.
